Experiments:
[1] = target: T1, Recombinant (1-346) HPK1 (h) (Homo sapiens, UniProt Q92918); assay: HPK1 Human STE Kinase Enzymatic Radiometric Assay; assay type: biochemical; settings: read-out: HPK1 IC50 nM Range*
T1 construct: Recombinant (1-346) HPK1 (h) is incubated with 8 mM MOPS pH 7.0
T1 sequence (Q92918 1-346): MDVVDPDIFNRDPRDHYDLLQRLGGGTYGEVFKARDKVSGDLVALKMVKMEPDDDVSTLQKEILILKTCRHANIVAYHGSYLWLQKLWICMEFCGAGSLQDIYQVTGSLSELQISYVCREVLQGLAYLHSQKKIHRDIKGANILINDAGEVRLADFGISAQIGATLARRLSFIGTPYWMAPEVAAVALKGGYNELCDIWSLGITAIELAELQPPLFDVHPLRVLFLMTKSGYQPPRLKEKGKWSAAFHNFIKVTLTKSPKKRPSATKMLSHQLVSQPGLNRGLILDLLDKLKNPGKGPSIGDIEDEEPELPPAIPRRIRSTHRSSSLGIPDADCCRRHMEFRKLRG
Method: A stock solution of 10 mM of test compound is prepared in DMSO. The compound plate was prepared by 3-fold and 9-point serial dilutions. […] The reaction is initiated by The addition of the Mg/ATP mix. After incubation for 40 minutes at RT, the reaction is stopped by the addition of phosphoric acid to a concentration of 0.5%.

Lck (h) = Lck (h) (Homo sapiens, UniProt P06239); assay: Lck Human  Kinase Enzymatic Radiometric Assay; assay type: biochemical; settings: read-out: Lck IC50 nM Range*
Sequence of Lck (h) (P06239 whole entry): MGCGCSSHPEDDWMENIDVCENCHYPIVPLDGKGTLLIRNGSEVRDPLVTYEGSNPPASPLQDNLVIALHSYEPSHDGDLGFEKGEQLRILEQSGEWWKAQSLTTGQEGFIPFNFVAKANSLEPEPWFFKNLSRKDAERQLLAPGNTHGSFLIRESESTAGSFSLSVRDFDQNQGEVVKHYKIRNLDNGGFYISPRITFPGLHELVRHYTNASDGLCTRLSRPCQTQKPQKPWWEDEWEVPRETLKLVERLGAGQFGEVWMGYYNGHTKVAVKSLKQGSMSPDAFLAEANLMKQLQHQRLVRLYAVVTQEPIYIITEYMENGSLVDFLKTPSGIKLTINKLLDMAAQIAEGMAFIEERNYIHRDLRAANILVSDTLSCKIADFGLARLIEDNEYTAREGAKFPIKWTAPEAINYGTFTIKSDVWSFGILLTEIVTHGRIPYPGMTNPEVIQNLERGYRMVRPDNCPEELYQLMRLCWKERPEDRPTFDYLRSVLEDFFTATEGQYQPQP
Method: Lck (h) is incubated with 50 mM Tris pH 7.5, 0.1 mM EGTA, 0.1 mM Na3VO4, 250 uM KVEKIGEGTYGVVYK (Cdc2 peptide), 10 mM MgAcetate and [gamma-33P]-ATP (specific activity and concentration as required). The reaction is initiated by the addition of the Mg/ATP mix. After incubation for 40 minutes at RT, the reaction is stopped by the addition of phosphoric acid to a concentration of 0.5%. 10 uL of the reaction is then spotted onto a P30 filtermat and washed four times for 4 minutes in 0.425% phosphoric acid and once in methanol prior to drying and scintillation counting. For more details on the kinase assay procedures see: Gao, Y. et. al.; Biochem J., 451 (2): 313-328, 2013.

IC50 [1] [nM]	IC50 (Lck (h)) [nM]	Structure (SMILES)
0.1 to 10	> 1000	Nc1nc(F)c(-c2ccc(C3CCNCC3)cc2)cc1-c1ccc2c(c1)CCNC2=O [I-30, 6-(2-amino-6-fluoro-5-(4-(piperidin-4-yl)phenyl)pyridin-3-yl)-3,4-dihydroisoquinolin-1(2H)-one]
0.1 to 10	> 1000	CN1CCN(c2ccc(-c3cc(-c4ccc5c(c4)CCNC5=O)c(N)nc3F)cc2)C=N1 [I-31, 6-(2-amino-6-fluoro-5-(4-(1-methyl-5,6-dihydro-1,2,4-triazin-4(1H)-yl)phenyl)pyridin-3-yl)-3,4-dihydroisoquinolin-1(2H)-one]
11 to 100	> 1000	CN1CCN(c2ccc(-c3cc(-c4ccc5c(c4)CNC5=O)c(N)nc3F)cc2)CC1 [I-32, 5-(2-amino-6-fluoro-5-(4-(4-methylpiperazin-1-yl)phenyl)pyridin-3-yl)isoindolin-1-one]
0.1 to 10	> 1000	CN1CCN(c2ccc(-c3cc(-c4ccc5c(c4)C(C)(C)NC5=O)c(N)nc3F)cc2)CC1 [I-33, 5-(2-amino-6-fluoro-5-(4-(4-Methylpiperazin-1-yl)phenyl)pyridin-3-yl)-3,3-dimethylisoindolin-1-one]
0.1 to 10	> 1000	CC(=O)N1CCC(Oc2ccc(-c3cc(-c4ccc5c(c4)CCNC5=O)c(N)nc3F)cc2)CC1 [I-34, 6-(5-(4-((1-acetylpiperidin-4-yl)oxy)phenyl)-2-amino-6-fluoropyridin-3-yl)-3,4-dihydroisoquinolin-1(2H)-one]
0.1 to 10	> 1000	Nc1nc(F)c(-c2ccc(OC3CCOCC3)cc2)cc1-c1ccc2c(c1)CCNC2=O [I-35, 6-(2-amino-6-fluoro-5-(4-((tetrahydro-2H-pyran-4-yl)oxy)phenyl)pyridin-3-yl)-3,4-dihydroisoquinolin-1(2H)-one]
0.1 to 10	> 1000	CN1C[C@H]2C[C@@]2(c2ccc(-c3cc(-c4ccc5c(c4)C(C)(C)NC5=O)c(N)nc3F)cc2)C1 [I-36, 5-(2-amino-6-fluoro-5-(4-((1R,5S)-3-methyl-3-azabicyclo[3.1.0]hexan-1-yl)phenyl)pyridin-3-yl)-3,3-dimethylisoindolin-1-one]
11 to 100	> 1000	CN1CCN(c2ccc(-c3cc(-c4ccc5c(c4)C(C)(C)NC5=O)c(N)nc3F)cc2)C=N1 [I-37, 5-(2-amino-6-fluoro-5-(4-(1-methyl-5,6-dihydro-1,2,4-triazin-4(1H)-yl)phenyl)pyridin-3-yl)-3,3-dimethylisoindolin-1-one 2,2,2-trifluoroacetate]
0.1 to 10	> 1000	Nc1nc(F)c(-c2ccc(N3CCN4CCOC[C@H]4C3)cc2)cc1-c1ccc2c(c1)CCNC2=O [I-38, (R)-6-(2-amino-6-fluoro-5-(4-(hexahydropyrazino[2,1-c][1,4]oxazin-8(1H)-yl)phenyl)pyridin-3-yl)-3,4-dihydroisoquinolin-1(2H)-one]
0.1 to 10	> 1000	Nc1nc(F)c(-c2ccc(N3CCN4CCOC[C@@H]4C3)cc2)cc1-c1ccc2c(c1)CCNC2=O [I-39, (S)-6-(2-amino-6-fluoro-5-(4-(hexahydropyrazino[2,1-c][1,4]oxazin-8(1H)-yl)phenyl)pyridin-3-yl)-3,4-dihydroisoquinolin-1(2H)-one]
0.1 to 10	> 1000	CN1CCN(c2ccc(-c3cc(-c4ccc5c(c4)CCNC5=O)c(N)nc3F)cc2F)CC1 [I-40, 6-(2-amino-6-fluoro-5-(3-fluoro-4-(4-methylpiperazin-1-yl)phenyl)pyridin-3-yl)-3,4-dihydroisoquinolin-1(2H)-one]
0.1 to 10	> 1000	CCN1CCN(c2ccc(-c3cc(-c4ccc5c(c4)CCNC5=O)c(N)nc3F)cc2)CC1 [I-41, 6-(2-amino-5-(4-(4-ethylpiperazin-1-yl)phenyl)-6-fluoropyridin-3-yl)-3,4-dihydroisoquinolin-1(2H)-one]
0.1 to 10	> 1000	CC(C)N1CCN(c2ccc(-c3cc(-c4ccc5c(c4)CCNC5=O)c(N)nc3F)cc2)CC1 [I-42, 6-(2-amino-6-fluoro-5-(4-(4-isopropylpiperazin-1-yl)phenyl)pyridin-3-yl)-3,4-dihydroisoquinolin-1(2H)-one]
0.1 to 10	> 1000	CN1CCC(Oc2ccc(-c3cc(-c4ccc5c(c4)CCNC5=O)c(N)nc3F)cc2)CC1 [I-44, 6-(2-amino-6-fluoro-5-(4-((1-methylpiperidin-4-yl)oxy)phenyl)pyridin-3-yl)-3,4-dihydroisoquinolin-1(2H)-one]
0.1 to 10	> 1000	CN(C)CCN(C)c1ccc(-c2cc(-c3ccc4c(c3)CCNC4=O)c(N)nc2F)cc1 [I-45, 6-(2-amino-5-(4-((2-(dimethylamino)ethyl)(methyl)amino)phenyl)-6-fluoropyridin-3-yl)-3,4-dihydroisoquinolin-1(2H)-one]
11 to 100	> 1000	C[C@@H]1CCCN1c1ccc(-c2cc(-c3ccc4c(c3)CCNC4=O)c(N)nc2F)cc1 [I-46, (R)-6-(2-amino-6-fluoro-5-(4-(2-methylpyrrolidin-1-yl)phenyl)pyridin-3-yl)-3,4-dihydroisoquinolin-1(2H)-one]
11 to 100	> 1000	C[C@@H]1CCCN1c1ccc(-c2cc(-c3ccc4c(c3)CCNC4=O)c(N)nc2F)c(F)c1 [I-47, (R)-6-(2-amino-6-fluoro-5-(2-fluoro-4-(2-methylpyrrolidin-1-yl)phenyl)pyridin-3-yl)-3,4-dihydroisoquinolin-1(2H)-one]
0.1 to 10	> 1000	CC(C)[C@@H]1CN(c2ccc(-c3cc(-c4ccc5c(c4)CCNC5=O)c(N)nc3F)cc2)CCN1C [I-48, (R)-6-(2-amino-6-fluoro-5-(4-(3-isopropyl-4-methylpiperazin-1-yl)phenyl)pyridin-3-yl)-3,4-dihydroisoquinolin-1(2H)-one]
0.1 to 10	> 1000	CC(C)[C@@H]1CN(c2ccc(-c3cc(-c4ccc5c(c4)CCNC5=O)c(N)nc3F)c(F)c2)CCN1C [I-49, (R)-6-(2-amino-6-fluoro-5-(2-fluoro-4-(3-isopropyl-4-methylpiperazin-1-yl)phenyl)pyridin-3-yl)-3,4-dihydroisoquinolin-1(2H)-one]
0.1 to 10	> 1000	CC(C)[C@H]1CN(c2ccc(-c3cc(-c4ccc5c(c4)CCNC5=O)c(N)nc3F)cc2)CCN1C [I-50, (S)-6-(2-amino-6-fluoro-5-(4-(3-isopropyl-4-methylpiperazin-1-yl)phenyl)pyridin-3-yl)-3,4-dihydroisoquinolin-1(2H)-one]
0.1 to 10	> 1000	CC(C)[C@H]1CN(c2ccc(-c3cc(-c4ccc5c(c4)CCNC5=O)c(N)nc3F)c(F)c2)CCN1C [I-51, (S)-6-(2-amino-6-fluoro-5-(2-fluoro-4-(3-isopropyl-4-methylpiperazin-1-yl)phenyl)pyridin-3-yl)-3,4-dihydroisoquinolin-1(2H)-one]
0.1 to 10	> 1000	CCN1CCCC(c2ccc(-c3cc(-c4ccc5c(c4)CCNC5=O)c(N)nc3F)cc2)C1 (stereo not drawn) [I-52, 6-(2-amino-5-(4-(1-ethylpiperidin-3-yl)phenyl)-6-fluoropyridin-3-yl)-3,4-dihydroisoquinolin-1(2H)-one]
0.1 to 10	> 1000	CCN1CCC(c2ccc(-c3cc(-c4ccc5c(c4)CCNC5=O)c(N)nc3F)cc2)CC1 [I-53, 6-(2-amino-5-(4-(1-ethylpiperidin-4-yl)phenyl)-6-fluoropyridin-3-yl)-3,4-dihydroisoquinolin-1(2H)-one]
0.1 to 10	> 1000	CS(=O)(=O)N1CCC(Oc2ccc(-c3cc(-c4ccc5c(c4)CCNC5=O)c(N)nc3F)cc2)CC1 [I-54, 6-(2-amino-6-fluoro-5-(4-((1-(methylsulfonyl)piperidin-4-yl)oxy)phenyl)pyridin-3-yl)-3,4-dihydroisoquinolin-1(2H)-one]
0.1 to 10	> 1000	Nc1nc(F)c(-c2cnn(C3CCOCC3)c2)cc1-c1ccc2c(c1)CCNC2=O [I-55, 6-(2-amino-6-fluoro-5-(1-(tetrahydro-2H-pyran-4-yl)-1H-pyrazol-4-yl)pyridin-3-yl)-3,4-dihydroisoquinolin-1(2H)-one]
11 to 100	> 1000	CC(C)(C)OC(=O)N1CC=C(c2ccc(-c3cc(-c4ccc5c(c4)CCNC5=O)c(N)nc3F)cc2)CC1 [I-56, tert-butyl4-(4-(6-amino-2-fluoro-5-(1-oxo-1,2,3,4-tetrahydroisoquinolin-6-yl)pyridin-3-yl)phenyl)-3,6-dihydropyridine-1(2H)-carboxylate]

Structure (SMILES)	IC50 [1] [nM]	IC50 (Lck (h)) [nM]
Nc1nc(F)c(-c2ccc(C3CCN(CC(F)F)CC3)cc2)cc1-c1ccc2c(c1)CCNC2=O [I-43, 6-(2-amino-5-(4-(1-(2,2-difluoroethyl)piperidin-4-yl)phenyl)-6-fluoropyridin-3-yl)-3,4-dihydroisoquinolin-1(2H)-one]	0.1 to 10	> 1000
